The results in this text go back to paper PMC9680484, “Synthesis, Biophysical Interaction of DNA/BSA, Equilibrium and Stopped-Flow Kinetic Studies, and Biological Evaluation of bis(2-Picolyl)amine-Based Nickel(II) Complex” (Biomimetics, 2022).

SMILES strings stand for the structures. In brackets after ≈: the same amount, converted by molar mass. Several values for one entry are separate records, joined by “and”; a condition that tells them apart may be missing. Identical values can stand only once.

The test system of assay [1] is P. aeruginosa. The assay can be described thus: Antibacterial MIC/MBC, P. aeruginosa. Type of assay: cell-based. Also on record: MIC: unit not given here. Particulars: Gram-negative.
A short description of assay [2]: MTT cytotoxicity assay, normal cells. Type of assay: cell-based.
For assay [3], the system named is E. faecalis. The assay can be described thus: Antibacterial MIC/MBC, E. faecalis. As to conditions: Gram-positive. The class given is cell-based. Also on record: MIC: unit not given here.
Assay [4] deals with S. aureus. The assay is described as follows: Antibacterial MIC/MBC, S. aureus. Type of assay: cell-based. As to conditions: Gram-positive. The procedure: Several studies have shown that organic compound coordination with a metallic element results in significant changes in the biological activity of both the organic ligand and the metal. As a result, BPA and its nickel complex NiBPA were tested in vitro for antibacterial activity against Gram-positive (S. aureus and S epidermidis) and Gram-negative (P. mirabilis and E. coli) bacteria. Figure 10 depicts the antibacterial function of BPA and NiBPA as the diameter of the growth-inhibition region in millimeters. […] The MBC is identified by determining the lowest concentration of antibacterial agents that reduces the viability of the initial bacterial inoculum by 99.9%. The MIC or MBC strain was chosen based on the value agreed upon on two or more occasions. The antibiotic tobramycin (TOB) was used to control the situation. The inhibition zone, as well as the MIC and MBC data, leads to the following conclusions. […] This is explained by the metal ion’s polarity and cationic charge, as NiBPA has a cationic property with two positive charges. […] The interaction between Gram-negative bacteria and NiBPA was stronger than that of Gram-positive bacteria due to the higher negative charge on the cell surface, despite the presence of an outer membrane in Gram-negative bacteria (see Figure 11).

The target of assay [5] is BSA (Bos taurus, UniProt P02769). The assay is described as follows: BSA fluorescence quenching titration (Stern-Volmer / Scatchard). The class given is binding, bovine. Particulars: for Kbin: BSA binding constant from Scatchard equation; for n (number of binding sites): Scatchard plot log (I0 − I)/I vs. log [Q]; for KSV: Stern-Volmer constant; for Kq: quenching constant, Kq = Ksv/τ0, τ0 = 10 ns. As to the method: The excitation and emission wavelengths of BSA at 280 nm were monitored in protein binding studies using BSA ([…]) solution prepared in Tris-HCl buffer (pH 7.5), and the solution was stored in a dark place at 4 °C.
Interactions between the most common blood protein, serum albumin, and complexes have sparked a lot of interest recently because of their structural similarity to human serum albumin. To better understand the mechanism of interaction between BPA and its nickel(II) complex NiBPA with BSA, fluorescence quenching studies were carried out. BSA’s fluorescence is due to intrinsic protein characteristics, such as the presence of tryptophan and tyrosine residues. Variations in the emission spectra caused by protein conformational changes, subunit interaction, substrate binding, or denaturation are largely attributed to the tryptophan residue. As a result, BSA fluorescence behavior can provide valuable insight into protein structure, dynamics, and folding. Fluorescence titration experiments were performed at room temperature with BSA and different concentrations of BPA and NiBPA in the range 200–600 nm (λex. 280 nm). A slight red shift (40 percent, BPA; 65 percent, NiBPA; Figure 3) reduced the intensity of BSA fluorescence at 343 nm. The presence of the protein’s active site in a hydrophobic environment causes the redshift. […] The quenching mechanism can be set to either static or dynamic operation. Dynamic quenching occurs when the fluorophore and the quencher come into contact during the excited state’s transient existence, whereas static quenching is caused by the formation of a complex between the quencher and the fluorophore in the ground state. BSA (fluorophore) has a UV-vis absorption spectrum that can be used to investigate the type of quenching quickly and easily. […] The binding constants for BPA and NiBPA were calculated using Equation (1) and found to be 0.4 × 10^4 M^−1 and 0.82 × 10^4 M^−1, respectively (Table 1). […] Furthermore, the findings are in line with previous research on related compounds.
The Kq value is much higher than the 2 × 10^10 M^−1s^−1 maximum scatters collision quenching constant of quenchers with BSA (Kq = Ksv/τ0), where KSV is the Stern–Volmer constant and τ0 is the average lifetime of the BSA in the absence of the quencher (τ0 = 10 ns). This supports the idea of a static quenching mechanism. […] It is second order in [Q] and thus leads to upward curvy plots of I0/I versus [Q] at higher [Q].
The quenching constant (Kq) was calculated using the Stern–Volmer and Scatchard equation and plotted as I0/I vs. [Q] to better understand the quenching process (Figure 3). In addition, Scatchard Equation (2) was used to calculate the equilibrium binding constant:log[(I0 − I)/I] = log Kbin + n log [Q](2) where Kbin is the compound’s BSA binding constant and n is the number of binding sites. From the log (I0 − I)/I vs. log [Q] plot (Figure 5), the binding constant (Kbin) and the number of binding sites (n) have been calculated (Table 1). The estimated value of n (∼1) for BPA and NiBPA strongly supported the existence of a single binding site in BSA.

For assay [6], the system named is ct-DNA. The assay can be described thus: Stopped-flow kinetics of ct-DNA binding. As to conditions: for Ka1 (k1/k−1) / Kd: 1st step; for Ka1 (k1/k−1) / Kd / K2 (2nd step) / Ka2 (k2/k−2) / k−2 / k1 (1st step, second-order association constant) / k−1 (1st step, first-order dissociation constant): 25 °C; for Kd: read-out: Kd1 (k−1/k1); for K2 (2nd step) / Ka2 (k2/k−2) / k−2: 2nd step. As to the method: The kinetics of protein and DNA binding was measured using an Applied KinetAsyst SF-61DX2 stopped-flow instrument. At 25 °C, equal volumes of compounds against protein and DNA solutions were rapidly mixed in the stopped-flow instrument. The binding reactions were studied using a 10-fold excess of the ligand BPA and NiBPA under pseudo-first-order conditions. For each experimental condition, all recorded rate constants were taken into account, from which the mean values of at least three independent kinetic runs were calculated.
Because many medicines with lower cellular toxicity have a slow DNA dissociation rate, several factors, such as the strength of binding and the drug’s affinity for DNA, as well as the kinetic stability of DNA-drug adducts, may contribute to antitumor effectiveness. The stopped-flow technique was used to study in-vitro protein/DNA binding to BPA and propose a mechanism in order to obtain such information. The kinetic traces were recorded at 265 nm within 100 s (BPA) and 5 s (NiBPA), respectively, to capture the interaction process with BSA. […] In the case of ct-DNA interaction, the kinetic traces were recorded at 290 nm, and both BPA and NiBPA followed a similar pattern since kinetic traces for BPA and NiBPA were collected within 100 s, covering the entire interaction process. […] Over the concentration range of BPA and NiBPA, the study of kinetic traces performed under pseudo-first-order conditions may be fitted to two kinetic phases (Figure 7) evaluated using the following Equation (3):(3) A=a1e^−kobs1t1+a2e^−kobs2t2+A0
The interaction process involves at least two steps, and the stopped-flow records the two kinetic phases as a fast binding (rate constant kobs1) followed by a slow first-order isomerization process (rate constant kobs2). […] Both kon and koff were used to calculate the equilibrium association constants Kaff [kon/koff M^−1] and the equilibrium dissociation constants Kd [koff/kon M]. […]

[7] abbreviates: BSA fluorescence, λex 280 nm, room temperature.

As to `c1ccc(CNCc2ccccn2)nc1` [BPA, bis(2-picolyl)amine], the MBC in assay [1] was found to be 0 µg/mL. This compound also registered an IC50 in assay [2] (Homo sapiens, WI-38, 24 h) of 237.2 ± 1.3 µg/mL (≈ 1190 µM). In assay [3], the MBC came to 0 µg/mL. This compound also gave a minimal bactericidal concentration (MBC) in assay [4] of 0 µg/mL. Further, in assay [5], the Kbin is on record as 0.25 10^4 M^−1, the “n (number of binding sites)” value came to 1.0, the KSV came to 2100 M⁻¹ and the Kq is listed as 0.21 10^12 M^−1s^−1. Also, the KSV in assay [5] (setting [7]) is 0.21 10^4 M^−1. The “reduction of BSA fluorescence intensity at 343 nm” value in assay [5] (λex 280 nm, room temperature) turned out to be 40%. Moreover, in assay [6], the “Ka1 (k1/k−1)” value is 40.0 M⁻¹ and 40 M⁻¹; the Kd came out at 25.6 mM; the “K2 (2nd step)” value was 0.29 ± 0.01 M⁻¹ s⁻¹; the “Ka2 (k2/k−2)” value came out at 47.5 M⁻¹. Besides, in assay [6], the “k−2” value is given as 6.1 ± 0.3 10^−3s^−1; the “k1 (1st step, second-order association constant)” value came to 27.0 ± 2.5 M⁻¹ s⁻¹; the “k−1 (1st step, first-order dissociation constant)” value is 0.69 ± 0.1 s⁻¹; the “Ka (overall binding)” value is 1899 M⁻¹.

Regarding `O.[Cl][Ni][Cl].c1ccc(CNCc2ccccn2)nc1` [NiBPA, [(BPA)NiCl2(H2O)]], in assay [1], the MBC turned out to be 70.0 µg/mL and the MIC came out at 35.0. This compound also registered an IC50 in assay [2] (normal liver (Wi38) cells, MTT, 24 h) of 120.0 ± 0.5 µg/mL. Also, in assay [3], the MBC came to 80.0 µg/mL and the MIC is 43.0. Also, in assay [4], the MBC amounted to 76.0 µg/mL. Also, in assay [5], the Kbin is listed as 0.90 10^4 M^−1, the “n (number of binding sites)” value was 1.3, the KSV was 7000 M⁻¹ and the Kq was 0.70 10^12 M^−1s^−1. In addition, the KSV in assay [5] (setting [7]) is 0.70 10^4 M^−1. Further, in assay [5] (λex 280 nm, room temperature), the “reduction of BSA fluorescence intensity at 343 nm” value came out at 65%. For the same compound, in assay [6], the “Ka1 (k1/k−1)” value was 53.6 M⁻¹; the Kd was 19 mM; the “K2 (2nd step)” value is 0.23 ± 0.01 M⁻¹ s⁻¹; the “Ka2 (k2/k−2)” value is 39 M⁻¹ and 39.0 M⁻¹. Besides, in assay [6], the “k−2” value is 5.9 ± 0.5 10^−3s^−1; the “k1 (1st step, second-order association constant)” value came to 19.3 ± 2.3 M⁻¹ s⁻¹; the “k−1 (1st step, first-order dissociation constant)” value was determined as 0.36 ± 0.1 s⁻¹; the “Ka (overall binding)” value turned out to be 2077 M⁻¹.
